IC50 data for 27 compounds are collected here from patent US20100056524A1, “Compound” (priority 2008, published 2010).

The structures appear in SMILES notation. Structures can show the parent of a compound that is named as a salt.

What is called IC50 is the point on the concentration scale where inhibition reaches its midpoint.

The target of this experiment is T1, TBK1 (Homo sapiens, UniProt Q9UHD2).
T1 construct: All protein kinases were of human origin and encoded full length proteins, unless indicated otherwise; His6; made in house; host or cells: insect Sf21 cells
T1 sequence (Q9UHD2 1-729): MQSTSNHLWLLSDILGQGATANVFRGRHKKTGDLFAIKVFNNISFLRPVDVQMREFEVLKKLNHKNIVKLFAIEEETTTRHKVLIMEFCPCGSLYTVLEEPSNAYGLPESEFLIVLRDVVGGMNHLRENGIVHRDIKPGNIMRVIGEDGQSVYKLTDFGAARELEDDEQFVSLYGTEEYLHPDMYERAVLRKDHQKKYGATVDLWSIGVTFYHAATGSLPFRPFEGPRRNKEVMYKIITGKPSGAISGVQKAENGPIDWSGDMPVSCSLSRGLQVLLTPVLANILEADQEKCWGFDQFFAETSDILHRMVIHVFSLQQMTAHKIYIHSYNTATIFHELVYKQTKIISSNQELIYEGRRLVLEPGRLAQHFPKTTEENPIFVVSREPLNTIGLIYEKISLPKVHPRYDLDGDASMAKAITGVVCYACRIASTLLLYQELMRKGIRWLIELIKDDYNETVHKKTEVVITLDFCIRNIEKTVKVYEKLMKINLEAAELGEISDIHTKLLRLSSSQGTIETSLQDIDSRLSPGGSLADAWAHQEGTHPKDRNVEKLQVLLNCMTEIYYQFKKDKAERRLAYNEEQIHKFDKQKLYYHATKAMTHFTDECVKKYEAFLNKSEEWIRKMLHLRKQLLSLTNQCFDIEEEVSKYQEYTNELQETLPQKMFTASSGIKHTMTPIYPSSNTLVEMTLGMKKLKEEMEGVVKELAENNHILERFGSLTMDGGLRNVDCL
The experiment can be described thus: TBK1 protein kinase assay ([γ-33P]ATP, P81 filterplates). It counts as biochemical. Conditions: 50 μM ATP; read-out: Potency (TBK1 IC50 potency score). The essentials: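 Human TBK1 assayed for 30 min with peptide substrate (300 μM), 50 μM [γ-33P]ATP and 10 mM magnesium acetate in 50 mM Tris/HCl pH 7.5, 0.1 mM EGTA, 0.1% 2-mercaptoethanol. Stopped with orthophosphoric acid and counted on P81 filters. IC50 from 10 compound concentrations.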
For the compound `COC(=O)c1cccc(Nc2ncc(C3CC3)c(NCCCNC(=O)c3cccs3)n2)c1` [Example 33, 3-(5-Cyclopropyl-4-{3-[(thiophene-2-carbonyl)-amino]-propylamino}-pyrimidin-2-ylamino)-benzoic acid methyl ester trifluoroacetic acid salt], the IC50 lay within 100 to 1000 nM. In the case of `CC(=O)Nc1cccc(Nc2ncc(C3CC3)c(NCCCNC(=O)C3CCC3)n2)c1` [Example 68, Cyclobutanecarboxylic acid {3-[2-(3-acetylamino-phenylamino)-5-cyclopropyl-pyrimidin-4-ylamino]-propyl}-amide] it was < 100 nM; in that of `O=C(NCCCNc1nc(Nc2ccc(CN3CCCCC3)nc2)ncc1C1CC1)C1CCC1` [Example 156, Cyclobutanecarboxylic acid {3-[5-cyclopropyl-2-(6-piperidin-1-ylmethyl-pyridin-3-ylamino)-pyrimidin-4-ylamino]-propyl}-amide], < 100 nM; in that of `CN(C)[C@H]1CCN(Cc2ccc(Nc3ncc(C4CC4)c(NCCCNC(=O)C4CCC4)n3)cn2)C1` [Example 146, Cyclobutanecarboxylic acid (3-{5-cyclopropyl-2-[6-((S)-3-dimethylamino-pyrrolidin-1-ylmethyl)-pyridin-3-ylamino]-pyrimidin-4-ylamino}-propyl)-amide], < 100 nM. In the case of `O=C(NCCCNc1nc(Nc2cnn(C3CCOCC3)c2)ncc1C1CC1)C1CCC1` [Example 192, Cyclobutanecarboxylic acid (3-{5-cyclopropyl-2-[1-(tetrahydro-pyran-4-yl)-1H-pyrazol-4-ylamino]-pyrimidin-4-ylamino}-propyl)-amide] it was < 100 nM; in that of `O=C(NCCCNc1nc(Nc2cnn(CC3CC3)c2)ncc1C1CC1)C1CCC1` [Example 201, Cyclobutanecarboxylic acid {3-[5-cyclopropyl-2-(1-cyclopropylmethyl-1H-pyrazol-4-ylamino)-pyrimidin-4-ylamino]-propyl}-amide], < 100 nM.

For `O=C(NCCCNc1nc(Nc2cccc(CN3CCC(F)(F)CC3)c2)ncc1C1CC1)C1CCC1` [Example 135, Cyclobutanecarboxylic acid (3-{5-cyclopropyl-2-[3-(4,4-difluoro-piperidin-1-ylmethyl)-phenylamino]-pyrimidin-4-ylamino}-propyl)-amide], the IC50 was < 100 nM. Turning to `CC(C)(C)OC(=O)Nc1cccc(Nc2ncc(C3CC3)c(NCCCNC(=O)c3cccs3)n2)c1` [Example 31, [3-(5-Cyclopropyl-4-{3-[(thiophene-2-carbonyl)-amino]-propylamino}-pyrimidin-2-ylamino)-phenyl]-carbamic acid tert-butyl ester], the IC50 is 1000 to 10000 nM. Consider `Cn1ncc2cc(Nc3ncc(C4CC4)c(NCCCNC(=O)C4CCC4)n3)ccc21` [Example 137, Cyclobutanecarboxylic acid {3-[5-cyclopropyl-2-(1-methyl-1H-indazol-5-ylamino)-pyrimidin-4-ylamino]-propyl}-amide], for which the IC50 is < 100 nM. `O=C(NCCCNc1nc(Nc2cccc(O)c2)ncc1C1CC1)c1cccs1` [Example 29, Thiophene-2-carboxylic acid {3-[5-cyclopropyl-2-(3-hydroxy-phenylamino)-pyrimidin-4-ylamino]-propyl}-amide Trifluoroacetic acid salt]: the IC50 was 1000 to 10000 nM.

As for `O=C(NCCCNc1nc(Nc2ccc3nccn3c2)ncc1C1CC1)C1CCC1` [Example 186, Cyclobutanecarboxylic acid {3-[5-cyclopropyl-2-(imidazo[1,2-a]pyridin-6-ylamino)-pyrimidin-4-ylamino]-propyl}-amide], the IC50 is < 100 nM.

For `O=C(NCCCNc1nc(Nc2cccc(F)c2)ncc1C1CC1)c1ccc(Cl)s1` [Example 21, 5-Chloro-thiophene-2-carboxylic acid {3-[5-cyclopropyl-2-(3-fluoro-phenylamino)-pyrimidin-4-ylamino]-propyl}-amide], the IC50 lay within 100 to 1000 nM. For `CN1CCN(C(=O)c2ccc(Nc3ncc(C4CC4)c(NCCCNC(=O)C4CCC4)n3)cc2)CC1` [Example 175, Cyclobutanecarboxylic acid (3-{5-cyclopropyl-2-[4-(4-methyl-piperazine-1-carbonyl)-phenylamino]-pyrimidin-4-ylamino}-propyl)-amide] the value was < 100 nM.

Regarding `O=C(NCCCNc1nc(Nc2ccc3ncsc3c2)ncc1C1CC1)C1CCC1` [Example 40, Cyclobutanecarboxylic acid {3-[2-(benzothiazol-6-ylamino)-5-cyclopropyl-pyrimidin-4-ylamino]-propyl}-amide. Hydrochloride salt], the IC50 was < 100 nM. In the case of `CN(C)c1cccc(Nc2ncc(C3CC3)c(NCCCNC(=O)c3cccs3)n2)c1` [Example 44, Thiophene-2-carboxylic acid {3-[5-cyclopropyl-2-(3-dimethylamino-phenylamino)-pyrimidin-4-ylamino]-propyl}-amide trifluoroacetic acid salt] it was 100 to 1000 nM; in that of `O=C(NCCCNc1nc(Nc2ccc(-c3cnco3)cc2)ncc1C1CC1)C1CCC1` [Example 181, Cyclobutanecarboxylic acid {3-[5-cyclopropyl-2-(4-oxazol-5-yl-phenylamino)-pyrimidin-4-ylamino]-propyl}-amide], < 100 nM. For `CNC(=O)c1ccc(Nc2ncc(C3CC3)c(NCCCNC(=O)C3CCC3)n2)cc1` [Example 164, 4-{4-[3-(Cyclobutanecarbonyl-amino)-propylamino]-5-cyclopropyl-pyrimidin-2-ylamino}-N-methyl-benzamide] the value was < 100 nM.

Turning to `O=C(NCCCNc1nc(Nc2ccc(CN3CCCC(F)(F)C3)nc2)ncc1C1CC1)C1CCC1` [Example 157, Cyclobutanecarboxylic acid (3-{5-cyclopropyl-2-[6-(3,3-difluoro-piperidin-1-ylmethyl)-pyridin-3-ylamino]-pyrimidin-4-ylamino}-propyl)-amide], the IC50 was < 100 nM. On to `O=C(NCCCNc1nc(Nc2ccc(CCN3CCCC3)cc2)ncc1C1CC1)C1CCC1` [Example 183, Cyclobutanecarboxylic acid (3-{5-cyclopropyl-2-[4-(2-pyrrolidin-1-yl-ethyl)-phenylamino]-pyrimidin-4-ylamino}-propyl)-amide], for which the IC50 is < 100 nM.

In the case of `O=C(NCCCNc1nc(Nc2ccc(C(=O)N3CCOCC3)cc2)ncc1C1CC1)C1CCC1` [Example 174, Cyclobutanecarboxylic acid (3-{5-cyclopropyl-2-[4-(morpholine-4-carbonyl)-phenylamino]-pyrimidin-4-ylamino}-propyl)-amide], the half-maximal inhibitory concentration (IC50) was < 100 nM. As to `Cn1cc2ccc(Nc3ncc(C4CC4)c(NCCCNC(=O)C4CCC4)n3)cc2n1` [Example 138, Cyclobutanecarboxylic acid {3-[5-cyclopropyl-2-(2-methyl-2H-indazol-6-ylamino)-pyrimidin-4-ylamino]-propyl}-amide], the IC50 is < 100 nM. With `CN1CCN(c2ccc(Nc3ncc(C4CC4)c(NCCCNC(=O)C4CCC4)n3)cc2)CC1` [Example 165, Cyclobutanecarboxylic acid (3-{5-cyclopropyl-2-[4-(4-methyl-piperazin-1-yl)-phenylamino]-pyrimidin-4-ylamino}-propyl)-amide], the IC50 was < 100 nM.

Take `O=C(NCCCNc1nc(Nc2ccc3nccnc3c2)ncc1C1CC1)c1cccs1` [Example 56, Thiophene-2-carboxylic acid {3-[5-cyclopropyl-2-(quinoxalin-6-ylamino)-pyrimidin-4-ylamino]-propyl}-amide]: the concentration for half-maximal inhibition (IC50) was in the range of 100 to 1000 nM.

With `O=C(NCCCNc1nc(Nc2cccc(C(F)(F)F)c2)ncc1C1CC1)c1cccs1` [Example 27, Thiophene-2-carboxylic acid {3-[5-cyclopropyl-2-(3-trifluoromethyl-phenylamino)-pyrimidin-4-ylamino]-propyl}-amide], the IC50 was 100 to 1000 nM. As for `O=C(NCCCNc1nc(Nc2ccc(-c3cncnc3)nc2)ncc1C1CC1)C1CCC1` [Example 116, Cyclobutanecarboxylic acid {3-[5-cyclopropyl-2-(6-pyrimidin-5-yl-pyridin-3-ylamino)-pyrimidin-4-ylamino]-propyl}-amide], the IC50 is < 100 nM. In the case of `O=C(NCCCNc1nc(Nc2cccc(C(=O)N3CCCC3)c2)ncc1C1CC1)C1CCC1` [Example 124, Cyclobutanecarboxylic acid (3-{5-cyclopropyl-2-[3-(pyrrolidine-1-carbonyl)-phenylamino]-pyrimidin-4-ylamino}-propyl)-amide], the IC50 is < 100 nM.

With `O=C(NCCCNc1nc(Nc2ccc(-n3cncn3)cc2)ncc1C1CC1)C1CCC1` [Example 169, Cyclobutanecarboxylic acid (3-{5-cyclopropyl-2-[4-(2H-1,2,4-triazol-1-yl)-phenylamino]-pyrimidin-4-ylamino}-propyl)-amide], the IC50 is < 100 nM.
